The source of these data is BindingDB's records for PubMed 1987453 (Georgetown University, 1991).

Sequence of Nicotinic acetylcholine receptor (Q62594 whole entry): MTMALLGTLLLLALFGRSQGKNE

The experiment concerns the target Nicotinic acetylcholine receptor (Rattus leucopus, UniProt Q62594).
With `CNC(=O)Oc1ccc2c(c1)[C@]1(C)CCN(C)C1N2C` (some centres undefined), the Ki was > 10 µM. Under `C=C(C=O)C[C@H]1C[C@H](O)[C@]2(C)O[C@@H]3C[C@@H]4O[C@@H]5C[C@]6(C)O[C@]7(C)CC[C@@H]8O[C@@H]9C[C@]%10(C)O[C@@H]%11C(C)=CC(=O)O[C@H]%11C[C@H]%10O[C@H]9C[C@@H](C)[C@H]8O[C@H]7C[C@H]6O[C@@]5(C)C/C=C\[C@H]4O[C@H]3C[C@H]2O1` stands 2 µM; under `CN1[C@@H]2CC[C@H]1CC(OC(=O)[C@H](CO)c1ccccc1)C2` (some centres undefined) [CAS_51-55-8], > 10 µM. In the case of `COc1cc2c3cc1Oc1cc(ccc1O)CC1c4c(cc(OC)c(O)c4Oc4ccc(cc4)CC3[N+](C)(C)CC2)CC[N+]1(C)C` (centres undefined) [CAS_8063-06-7], the Ki was > 10 µM.
